Source: patent US20230414715A1, “TRAIL COMPOUNDS FOR REDUCING CANCER TREAMENT SIDE EFFECTS” (BROWN UNIVERSITY, priority 2022, published 2023)
“Also recorded” adds a separate entry of the source.

Assays:
serum cytokines = test: Serum cytokine analysis in the NanoString cohort; assay type: in vivo, mouse
Method: All mouse serum samples were analyzed by a custom R&D systems Murine Premixed Multi- Analyte Kit (R&D Systems, Inc., Minneapolis, MN). The panel was run on a Luminex 200 Instrument (Luminex Corporation, Austin, TX) according to the manufacturer's instructions. Murine serum levels of Angiopoietin-2, BAFF/BLyS/TNFSF13B, CCL2/JE/MCP-1, CCL3/MIP-1 alpha, CCL4/MIP-1 beta, CCL5/RANTES, CCL7/MCP-3/MARC, CCL11/Eotaxin, CCL12/MCP-5, CCL20/MIP-3 alpha, CCL21/6Ckine, CCL22/MDC, Chitinase 3-like 1, CXCL1/GRO alpha/KC/CINC-1, CXCL10/IP-10/CRG-2, CXCL12/S DF- 1 alpha, Dkk-1, FGF basic/FGF2/bFGF, GDF-15, GM-CSF, Granzyme B, IFN-gamma, IGF-I/IGF-1, IL-1 alpha/IL-1F1, IL-1 beta/IL-1F2, IL-2, IL-3, IL-4, IL-6, IL-7, IL-10, IL-13, IL-16, IL-17/IL-17A, IL-27, IL-33 M-CSF, MMP-3, MMP-8, MMP-12, Prolactin, TWEAK/TNFSF12, VEGF, and VEGFR2/KDR/Flk-1 were measured. Analyte values were reported in picograms per milliliter (pg/mL). […] Latent TGF-β was activated in samples using 1 N HCl and samples were neutralized with 1.2 N NaOH/0.5 M HEPES. Samples were assayed immediately after neutralization.
(§1) One hour before radiation mice were grouped into control or given 10 mg/kg of TLY012 via IP injection (n=3/gender/treatment). Mice were treated and weighed twice a week up until 11 days post-radiation when all mice were euthanized.
(§2) Rodent sacrifice was performed following anesthetization with 100 mg/kg ketamine and 10 mg/kg xylazine administered intraperitoneally. ˜400-600 μL blood was first collected throughcardiac puncture with a 26G ⅝″ needle through the intercostal space into the left ventricle. […] 1 mL of 2 mg/mL EDTA in PBS was injected through the right ventricle to perfuse the lungs, after which the lungs were excised, washed further in PBS, submerged in RNAlater (Sigma-Aldrich, #R0901, Missouri, USA), and flash frozen in liquid nitrogen.

[1] = test system: e0771 orthotopic breast tumors in C57B1/6 mice; test: Orthotopic e0771 breast tumor model with 20 Gy whole-thorax irradiation
Method: C57B1/6 female mice (Taconic) were injected with 100,000 cells of murine breast cancer (e0771) in the right second mammary fat pad on day 0 of the experiment. […] Each group (n=3) also received a single whole-thorax x-ray irradiation dose of 20 Gy with shielding of other organs. One group (n=3) received no treatment and no radiation. The long axis and short axis of the tumors were measured using calipers and recorded twice a week. On day 18 all mice were euthanized at a humane endpoint, which was defined by 20% weight loss and/or a tumor volume of 2000 mm^3 (˜10% of body weight). Organs and tumors were harvested from the mice and 600 μL of blood was collected via cardiac puncture for serum cytokine analysis. Once tumors were extracted, they were weighed and measured to determine final volume and weight. Pulse oximeter readings were taken initially before radiation treatment and before sacrifice 9 days post-radiation (MouseSTAT Jr. Pulse Oximeter, Kent Scientific). When mice were under anesthesia the sensor of the MouseSTAT Jr. was placed on the hind right paw for 30 seconds. The highest and lowest values shown by the pulse oximeter during this time were recorded and then averaged together. The mean of all the averages per treatment group was then calculated.

[2] = test system: mRNA from mouse lung tissue; test: NanoString nCounter PanCancer Immune Profiling panel, mRNA from mouse lung tissue; assay type: in vivo
Method: as §1, §2
Frozen lung tissue was stored long-term at −80° C. Thawing was performed over 16 hours at 4° C. Tissue homogenization was performed with Precellys Lysing Kit (Cayman Chemical Company, #16859, Michigan, USA) and a Bulley Blender Homogenizer (Next Advance, #G14-G15) prior to RNA extraction with QlAgen RNeasy kit (Qiagen, #74104, Hilden, Germany) and cleaned up with QIAgen RNeasy MinElute Cleanup kit (Qiagen, #74204, Hilden, Germany). Quality and concentration were verified by Nanodrop. Extracted RNA samples were gene expression profiled by NanoString nCounter PanCancer Immune Profiling Panel (NanoString Technologies, #XTCSO-MIP1-12, Seattle, WA) according to the manufacturer's instructions.
Nanostring data was analyzed in nSolver Advanced Analysis Software and ROSALIND. Raw data was uploaded to nSolver for automated normalization, background subtraction, and quality control (QC) check. All samples passed QC. Control mice and mice treated with TLY012 lung samples were used to construct two groups to which an unpaired t-test was run to generate the data in the volcano plot that was created in ROSALIND (FIG. 5). Differential expression was determined with p-values and Benjamini-Yekutieli adjusted p-values. Pathway scores are generated in nSolver as a summarization of expression level changes of biologically related groups of genes. Pathway scores are derived from the first Principal Components Analysis (PCA) scores (1st eigenvectors) for each sample based on the individual gene expression levels for all the measured genes within a specific pathway. The cell type score itself is calculated as the mean of the log2 expression levels for all the probes included in the final calculation for that specific cell type.

[3] = NanoString cohort, FIG. 5C, relative to untreated control
[4] = all mice, treated versus control
[5] = lung, 20 Gy, relative to control

TLY012: N-terminal PEGylated recombinant human TRAIL; PEGylated trimeric TRAIL formulation
CCL3/MIP-lalpha serum level (serum cytokines; [3]): decrease | GDF-15 serum level (serum cytokines; [3]): decrease | IL-1beta serum level (serum cytokines; [3]): increase | fold-change in the cytokine levels of inflammatory markers in serum (serum cytokines; serum taken 3 days after last administration): no statistically significant fold-change | effect on anti-tumor efficacy of radiation (tumor weight and volume) ([1]; 20 Gy on day 9, treatment days 9, 12, 16, sacrifice day 18, FIG. 6B, C): no evidence that ONC201, TLY012 or their combination reduced efficacy of treatment | alveolar-wall thickness (H&E) ([1]; 9 days post irradiation): reduction | lung inflammation (H&E) ([1]; 9 days post irradiation): decreased inflammation | oxygen saturation (pulse oximetry) ([1]; 9 days post-radiation, versus irradiated mice without further treatment, FIG. 6D): more conserved; also recorded: partially rescued | CCL22/MDC levels ([1]; irradiated tumor-bearing mice, versus irradiated control, FIG. 6E): significant decrease; also recorded: reduction; also recorded: Reduced | rescue from radiation induced pneumonitis ([1]; tumor-bearing mice, 20 Gy): more potent by TLY012 than with ONC201 | genes with statistically significant differential expression ([2]; TRAIL-/- mice, 20 Gy, treated versus control): 16 | “Antigen Processing” pathway score [2, 4]: significant increases | “Interferon” pathway score [2, 4]: significant increases | “Antigen Processing” pathway score ([2]; female cohort): significant increases | “Basic Cell Functions” pathway score ([2]; female cohort): decrease | “Dendritic Cell Functions” pathway score ([2]; female cohort): significant increases | “MHC” pathway score ([2]; female cohort): significant increases | BCL6 mRNA [2, 5]: downregulated | CCL6 mRNA [2, 5]: upregulated | DOCKS mRNA [2, 5]: downregulated | FOXJ1 mRNA [2, 5]: downregulated | H2-Q2 mRNA [2, 5]: downregulated | HERC6 mRNA [2, 5]: upregulated | IKZF2 mRNA [2, 5]: downregulated | IL1RL2 mRNA [2, 5]: upregulated | KLRA7 mRNA [2, 5]: upregulated | MAPK8 mRNA [2, 5]: downregulated | PTGS2 mRNA [2, 5]: downregulated | RAET1A mRNA [2, 5]: downregulated | RELB mRNA [2, 5]: upregulated | RRAD mRNA [2, 5]: downregulated | TMEM173 mRNA [2, 5]: upregulated | TNFSF10 mRNA [2, 5]: upregulated
